Assay results taken from patent US20250271426A1, “REDUCTION OF BITTER TASTE OF ACTIVE PHARMACEUTICAL INGREDIENTS AND RELATED ASSAYS AND SCREENING METHODS” (Firmenich Incorporated, priority 2022, published 2025).

Experiments:
Assay in all cases: FLIPR calcium assay, cells with promiscuous G protein transfected with bitter receptor cDNA
Format in all cases: cell-based
Details in all cases: responsive if cellular response of >10% over baseline, Fluo4-AM
[1] = target: T1, T2R receptor SEQ ID NO: 5 (S5) (Homo sapiens, UniProt P59534)
T1 construct: expressed in transfected cells; host or cells: cells expressing a promiscuous G protein (e.g., G16g44)
T1 sequence (P59534 18-338): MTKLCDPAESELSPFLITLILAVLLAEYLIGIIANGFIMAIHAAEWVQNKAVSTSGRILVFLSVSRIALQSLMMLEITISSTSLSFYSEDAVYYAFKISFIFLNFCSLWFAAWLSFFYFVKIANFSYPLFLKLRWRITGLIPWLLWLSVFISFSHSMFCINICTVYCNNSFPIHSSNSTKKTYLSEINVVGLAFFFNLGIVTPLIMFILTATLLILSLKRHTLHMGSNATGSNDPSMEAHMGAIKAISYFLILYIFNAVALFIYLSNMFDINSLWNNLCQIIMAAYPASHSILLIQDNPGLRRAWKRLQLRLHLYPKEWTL
Experimental: (§1) Cells expressing a promiscuous G protein (e.g., G16g44) were transfected with vectors encoding 22 functional bitter receptor cDNAs, with one receptor per transfection. The cells were transfected directly in 384-well format high-density plates and incubated for 28 hours. Later, cells were loaded with the Ca-specific dye Fluo4-AM. After an incubation of 60 minutes, excess dye is washed off, and cells are stimulated with respective bitter agonists while simultaneously recording changes in intracellular fluorescence using a FLIPR instrument.
(§2) The above protocol was carried out using 94 different active pharmaceutical ingredients (APIs) that span a wide range of different APIs having a diversity of chemical structures. A particular T2R receptor was identified as being responsive to a particular API if it triggered a cellular response of >10% over baseline.

[2] = target: T2, T2R receptor SEQ ID NO: 4 (S4) (Homo sapiens, UniProt Q9NYV8)
T2 construct: expressed in transfected cells; host or cells: cells expressing a promiscuous G protein (e.g., G16g44)
T2 sequence (Q9NYV8 1-317): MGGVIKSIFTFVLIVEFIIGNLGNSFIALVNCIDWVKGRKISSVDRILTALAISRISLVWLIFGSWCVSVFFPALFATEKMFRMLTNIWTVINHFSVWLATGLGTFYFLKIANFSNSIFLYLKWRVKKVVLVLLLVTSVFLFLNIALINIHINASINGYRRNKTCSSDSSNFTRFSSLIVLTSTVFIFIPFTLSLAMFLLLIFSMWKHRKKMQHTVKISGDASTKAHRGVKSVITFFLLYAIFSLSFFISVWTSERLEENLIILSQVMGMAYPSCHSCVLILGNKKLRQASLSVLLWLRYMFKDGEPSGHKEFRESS
Experimental: as §1, §2

[3] = target: T3, T2R receptor SEQ ID NO: 3 (S3) (Homo sapiens, UniProt Q9NYW0, T156M)
T3 construct: expressed in transfected cells; host or cells: cells expressing a promiscuous G protein (e.g., G16g44)
T3 sequence (Q9NYW0 1-307 T156M): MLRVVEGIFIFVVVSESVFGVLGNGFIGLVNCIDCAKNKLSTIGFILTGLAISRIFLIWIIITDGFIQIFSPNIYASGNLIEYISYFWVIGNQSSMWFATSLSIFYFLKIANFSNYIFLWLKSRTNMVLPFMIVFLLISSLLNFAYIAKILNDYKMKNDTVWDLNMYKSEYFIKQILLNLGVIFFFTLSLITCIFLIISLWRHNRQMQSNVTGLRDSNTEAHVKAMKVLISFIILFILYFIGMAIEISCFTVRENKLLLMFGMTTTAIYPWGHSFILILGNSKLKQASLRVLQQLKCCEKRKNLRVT
Experimental: as §1, §2

[4] = target: T4, T2R receptor SEQ ID NO: 6 (S6) (Homo sapiens, UniProt P59540)
T4 construct: expressed in transfected cells; host or cells: cells expressing a promiscuous G protein (e.g., G16g44)
T4 sequence (P59540 1-309): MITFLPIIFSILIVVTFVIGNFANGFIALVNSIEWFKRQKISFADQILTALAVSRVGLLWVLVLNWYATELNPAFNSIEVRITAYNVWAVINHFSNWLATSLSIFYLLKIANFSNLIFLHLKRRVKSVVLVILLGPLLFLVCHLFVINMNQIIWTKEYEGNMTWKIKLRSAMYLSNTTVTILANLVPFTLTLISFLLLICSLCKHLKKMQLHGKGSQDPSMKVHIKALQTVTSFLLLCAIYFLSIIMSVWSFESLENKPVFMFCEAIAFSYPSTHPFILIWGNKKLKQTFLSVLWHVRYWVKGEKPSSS
Experimental: as §1, §2

[5] = target: T5, T2R receptor SEQ ID NO: 1 (S1) (Homo sapiens, UniProt Q9NYW7)
T5 construct: expressed in transfected cells; host or cells: cells expressing a promiscuous G protein (e.g., G16g44)
T5 sequence (Q9NYW7 1-299): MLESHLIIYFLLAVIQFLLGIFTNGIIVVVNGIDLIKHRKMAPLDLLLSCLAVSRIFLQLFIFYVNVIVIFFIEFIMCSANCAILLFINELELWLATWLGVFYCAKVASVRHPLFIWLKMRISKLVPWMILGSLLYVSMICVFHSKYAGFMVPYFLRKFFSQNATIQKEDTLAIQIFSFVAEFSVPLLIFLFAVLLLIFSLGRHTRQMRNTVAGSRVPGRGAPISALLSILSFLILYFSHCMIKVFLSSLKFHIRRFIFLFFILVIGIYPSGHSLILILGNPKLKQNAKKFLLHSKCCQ
Experimental: as §1, §2

Compound | S5 positive response of T2R receptor to API [1] | S4 positive response of T2R receptor to API [2] | S3 positive response of T2R receptor to API [3] | S6 positive response of T2R receptor to API [4] | S1 positive response of T2R receptor to API [5]
CCN(CC)CC#CCOC(=O)C(O)(c1ccccc1)C1CCCCC1 (stereo not shown) [Oxybutynin Chloride] | + (a “+” to indicate whether a particular T2R receptor showed a positive response to a particular API) | + (a “+” to indicate whether a particular T2R receptor showed a positive response to a particular API) | + (a “+” to indicate whether a particular T2R receptor showed a positive response to a particular API) | + (a “+” to indicate whether a particular T2R receptor showed a positive response to a particular API) | 
CCN(CC)CCNC(=O)c1ccc(N)cc1 [Procaineamide] | + (a “+” to indicate whether a particular T2R receptor showed a positive response to a particular API) |  | + (a “+” to indicate whether a particular T2R receptor showed a positive response to a particular API) | + (a “+” to indicate whether a particular T2R receptor showed a positive response to a particular API) | 
CC[C@H]1OC(=O)[C@H](C)[C@@H](O[C@H]2C[C@@](C)(OC)[C@@H](O)[C@H](C)O2)[C@H](C)[C@@H](O[C@@H]2O[C@H](C)C[C@H](N(C)C)[C@H]2O)[C@](C)(OC)C[C@@H](C)C(=O)[C@H](C)[C@@H](O)[C@]1(C)O [Clarithromycin] | + (a “+” to indicate whether a particular T2R receptor showed a positive response to a particular API) |  | + (a “+” to indicate whether a particular T2R receptor showed a positive response to a particular API) |  | + (a “+” to indicate whether a particular T2R receptor showed a positive response to a particular API)
C=C[C@H]1C[N@@]2CC[C@H]1C[C@H]2[C@H](O)c1ccnc2ccc(OC)cc12 [Quinine] | + (a “+” to indicate whether a particular T2R receptor showed a positive response to a particular API) | + (a “+” to indicate whether a particular T2R receptor showed a positive response to a particular API) | + (a “+” to indicate whether a particular T2R receptor showed a positive response to a particular API) | + (a “+” to indicate whether a particular T2R receptor showed a positive response to a particular API) | 
CC(=O)Oc1ccc(C(c2ccc(OC(C)=O)cc2)c2ccccn2)cc1 [Bisacodyl] |  | + (a “+” to indicate whether a particular T2R receptor showed a positive response to a particular API) |  | + (a “+” to indicate whether a particular T2R receptor showed a positive response to a particular API) | + (a “+” to indicate whether a particular T2R receptor showed a positive response to a particular API)
COC(=O)[C@H](c1ccccc1Cl)N1CCc2sccc2C1 [Clopidogrel] |  |  | + (a “+” to indicate whether a particular T2R receptor showed a positive response to a particular API) |  | + (a “+” to indicate whether a particular T2R receptor showed a positive response to a particular API)
CC12CCC(CC1)C(C)(C)O2 [Eucalyptol] |  | + (a “+” to indicate whether a particular T2R receptor showed a positive response to a particular API) |  |  | + (a “+” to indicate whether a particular T2R receptor showed a positive response to a particular API)
CC[N+](C)(C)c1cccc(O)c1 [Edrophonium] | + (a “+” to indicate whether a particular T2R receptor showed a positive response to a particular API) |  |  | + (a “+” to indicate whether a particular T2R receptor showed a positive response to a particular API) | + (a “+” to indicate whether a particular T2R receptor showed a positive response to a particular API)
CC(=O)Nc1ccc(O)cc1 [Acetaminophen] | + (a “+” to indicate whether a particular T2R receptor showed a positive response to a particular API) |  |  |  | 
COC(=O)[C@@H]1[C@H]2C[C@H]3c4[nH]c5ccccc5c4CCN3C[C@@H]2CC[C@@H]1O [Yohimbine] |  |  | + (a “+” to indicate whether a particular T2R receptor showed a positive response to a particular API) | + (a “+” to indicate whether a particular T2R receptor showed a positive response to a particular API) | + (a “+” to indicate whether a particular T2R receptor showed a positive response to a particular API)
COCCCC/C(=N\OCCN)c1ccc(C(F)(F)F)cc1 [Fluvoxamine] |  |  |  |  | + (a “+” to indicate whether a particular T2R receptor showed a positive response to a particular API)
CC(C)(C(=O)O)c1ccc(C(O)CCCN2CCC(C(O)(c3ccccc3)c3ccccc3)CC2)cc1 (stereo not shown) [Fexofenadine] | + (a “+” to indicate whether a particular T2R receptor showed a positive response to a particular API) |  |  | + (a “+” to indicate whether a particular T2R receptor showed a positive response to a particular API) | + (a “+” to indicate whether a particular T2R receptor showed a positive response to a particular API)
CC(CCc1ccccc1)NCC(O)c1ccc(O)c(C(N)=O)c1 (stereo not shown) [Labetalol] | + (a “+” to indicate whether a particular T2R receptor showed a positive response to a particular API) |  | + (a “+” to indicate whether a particular T2R receptor showed a positive response to a particular API) | + (a “+” to indicate whether a particular T2R receptor showed a positive response to a particular API) | 
Cc1cc(N)c2ccccc2[n+]1CCCCCCCCCC[n+]1c(C)cc(N)c2ccccc21 [Dequalinium] | + (a “+” to indicate whether a particular T2R receptor showed a positive response to a particular API) |  |  | + (a “+” to indicate whether a particular T2R receptor showed a positive response to a particular API) | 
COc1cc2c(c(OC)c1OC)-c1ccc(OC)c(=O)cc1[C@@H](NC(C)=O)CC2 [Colchicine] | + (a “+” to indicate whether a particular T2R receptor showed a positive response to a particular API) |  |  | + (a “+” to indicate whether a particular T2R receptor showed a positive response to a particular API) | 
CC1(C)S[C@@H]2[C@H](NC(=O)[C@H](N)c3ccc(O)cc3)C(=O)N2[C@H]1C(=O)O [Amoxicillin] |  |  |  |  | + (a “+” to indicate whether a particular T2R receptor showed a positive response to a particular API)
